Reference: PubChem BioAssay (NCI)
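Values below derive from 48-hour exposures of cells grown in 96-well plates, with endpoints linearly interpolated between the two concentrations bracketing the appropriate inhibition level. Abbreviation: GI50, concentration required for 50% inhibition of growth. TGI denotes the concentration required for complete inhibition of growth.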

How the values were obtained:
Experiment in all cases: NCI anticancer screen, dose series, 48 h
786-0 renal = test system: 786-0 renal
A498 renal = test system: A498 renal
A549 NSCLC = test system: A549 NSCLC
ACHN renal = test system: ACHN renal
BT-549 breast = test system: BT-549 breast
CAKI-1 renal = test system: CAKI-1 renal
CCRF-CEM leukemia = test system: CCRF-CEM leukemia
COLO 205 colon = test system: COLO 205 colon
DU-145 prostate = test system: DU-145 prostate
EKVX NSCLC = test system: EKVX NSCLC
HCT-116 colon = test system: HCT-116 colon
HCT-15 colon = test system: HCT-15 colon
HOP-62 NSCLC = test system: HOP-62 NSCLC
HOP-92 NSCLC = test system: HOP-92 NSCLC
HS 578T breast = test system: HS 578T breast
HT29 colon = test system: HT29 colon
IGROV1 ovarian = test system: IGROV1 ovarian
K-562 leukemia = test system: K-562 leukemia
KM12 colon = test system: KM12 colon
LOX IMVI melanoma = test system: LOX IMVI melanoma
M14 melanoma = test system: M14 melanoma
MALME-3M melanoma = test system: MALME-3M melanoma
MDA-MB-231 breast = test system: MDA-MB-231 breast
MDA-MB-435 = test system: MDA-MB-435
MOLT-4 leukemia = test system: MOLT-4 leukemia
NCI-H226 lung = test system: NCI-H226 lung
NCI-H23 lung = test system: NCI-H23 lung
NCI-H460 lung = test system: NCI-H460 lung
NCI-H522 lung = test system: NCI-H522 lung
NCI/ADR-RES ovarian = test system: NCI/ADR-RES ovarian
OVCAR-3 ovarian = test system: OVCAR-3 ovarian
OVCAR-4 ovarian = test system: OVCAR-4 ovarian
OVCAR-5 ovarian = test system: OVCAR-5 ovarian
OVCAR-8 ovarian = test system: OVCAR-8 ovarian
PC-3 prostate = test system: PC-3 prostate
RPMI-8226 leukemia = test system: RPMI-8226 leukemia
RXF 393 renal = test system: RXF 393 renal
SF-268 CNS = test system: SF-268 CNS
SF-295 CNS = test system: SF-295 CNS
SF-539 CNS = test system: SF-539 CNS
SK-MEL-2 melanoma = test system: SK-MEL-2 melanoma
SK-MEL-28 melanoma = test system: SK-MEL-28 melanoma
SK-MEL-5 melanoma = test system: SK-MEL-5 melanoma
SK-OV-3 ovarian = test system: SK-OV-3 ovarian
SN12C renal = test system: SN12C renal
SNB-19 CNS = test system: SNB-19 CNS
SNB-75 CNS = test system: SNB-75 CNS
SR leukemia = test system: SR leukemia
SW-620 colon = test system: SW-620 colon
T-47D breast = test system: T-47D breast
TK-10 renal = test system: TK-10 renal
U251 CNS = test system: U251 CNS
UACC-257 melanoma = test system: UACC-257 melanoma
UO-31 renal = test system: UO-31 renal
HCC-2998 colon = test system: HCC-2998 colon
HL-60(TB) leukemia = test system: HL-60(TB) leukemia
MCF7 breast = test system: MCF7 breast
UACC-62 melanoma = test system: UACC-62 melanoma

In the case of `CC(C)=CCC/C(C)=C/CC/C(C)=C/[C@@H]1[C@@H](CO)[C@]1(C)CC/C=C(\C)CCC=C(C)C`, the TGI (786-0 renal) is reported as 42.9 µM, the TGI (A498 renal) is reported as > 100 µM and the TGI (A549 NSCLC) is reported as > 100 µM. The TGI (ACHN renal) was 31.5 µM, the TGI (BT-549 breast) was > 100 µM and the TGI (CAKI-1 renal) was > 100 µM. The TGI (CCRF-CEM leukemia) was 45.2 µM, the TGI (COLO 205 colon) was > 100 µM and the TGI (DU-145 prostate) was > 100 µM. For the same compound, the TGI (EKVX NSCLC) was 48.2 µM, the TGI (HCT-116 colon) was > 100 µM and the TGI (HCT-15 colon) was > 100 µM. The TGI (HOP-62 NSCLC) was > 100 µM, the TGI (HOP-92 NSCLC) was 38.2 µM and the TGI (HS 578T breast) was > 100 µM. For the same compound, the TGI (HT29 colon) was > 100 µM, the TGI (IGROV1 ovarian) was 27.5 µM and the TGI (K-562 leukemia) was > 100 µM. The TGI (KM12 colon) was > 100 µM, the TGI (LOX IMVI melanoma) was 23.8 µM and the TGI (M14 melanoma) was > 100 µM. The TGI (MALME-3M melanoma) was > 100 µM, the TGI (MDA-MB-231 breast) was 52.2 µM and the TGI (MDA-MB-435) was > 100 µM. For the same compound, the TGI (MOLT-4 leukemia) was > 100 µM, the TGI (NCI-H226 lung) was 44.5 µM and the TGI (NCI-H23 lung) was > 100 µM. The TGI (NCI-H460 lung) was > 100 µM, the TGI (NCI-H522 lung) was 32.7 µM and the TGI (NCI/ADR-RES ovarian) was 55 µM. The TGI (OVCAR-3 ovarian) was > 100 µM, the TGI (OVCAR-4 ovarian) was > 100 µM and the TGI (OVCAR-5 ovarian) was > 100 µM. The TGI (OVCAR-8 ovarian) was 32.7 µM, the TGI (PC-3 prostate) was 56.5 µM and the TGI (RPMI-8226 leukemia) was 71.8 µM. The TGI (RXF 393 renal) was 72.8 µM, the TGI (SF-268 CNS) was 40.8 µM and the TGI (SF-295 CNS) was > 100 µM. The TGI (SF-539 CNS) was 59 µM, the TGI (SK-MEL-2 melanoma) was > 100 µM and the TGI (SK-MEL-28 melanoma) was > 100 µM. For the same compound, the TGI (SK-MEL-5 melanoma) was > 100 µM, the TGI (SK-OV-3 ovarian) was > 100 µM and the TGI (SN12C renal) was > 100 µM. The TGI (SNB-19 CNS) was > 100 µM, the TGI (SNB-75 CNS) was > 100 µM and the TGI (SR leukemia) was 55 µM. The TGI (SW-620 colon) was 66.9 µM, the TGI (T-47D breast) was > 100 µM and the TGI (TK-10 renal) was > 100 µM. For the same compound, the TGI (U251 CNS) was > 100 µM, the TGI (UACC-257 melanoma) was > 100 µM and the TGI (UO-31 renal) was 34.3 µM.
With `COc1cc(-c2nn(C)nc2-c2cc3ccccc3s2)cc(OC)c1OC` the GI50 (786-0 renal) was 0.312 µM, the TGI (786-0 renal) was > 100 µM and the GI50 (A498 renal) was 0.0413 µM. For the same compound, the TGI (A498 renal) was 7.63 µM, the GI50 (A549 NSCLC) was 0.169 µM and the TGI (A549 NSCLC) was > 100 µM. The GI50 (ACHN renal) was 0.293 µM, the TGI (ACHN renal) was > 100 µM and the GI50 (CAKI-1 renal) was 3.77 µM. For the same compound, the TGI (CAKI-1 renal) was > 100 µM, the GI50 (CCRF-CEM leukemia) was 0.22 µM and the TGI (CCRF-CEM leukemia) was > 100 µM. It also gave a GI50 (COLO 205 colon) of 0.082 µM, a TGI (COLO 205 colon) of 0.515 µM and a GI50 (DU-145 prostate) of 0.263 µM. For the same compound, the TGI (DU-145 prostate) was > 100 µM, the GI50 (EKVX NSCLC) was 0.466 µM and the TGI (EKVX NSCLC) was > 100 µM. The GI50 (HCC-2998 colon) was 0.407 µM, the TGI (HCC-2998 colon) was > 100 µM and the GI50 (HCT-116 colon) was 0.0738 µM. For the same compound, the TGI (HCT-116 colon) was > 100 µM, the GI50 (HCT-15 colon) was 0.0587 µM and the TGI (HCT-15 colon) was > 100 µM. It also gave a GI50 (HL-60(TB) leukemia) of 0.0488 µM, a TGI (HL-60(TB) leukemia) of 1.07 µM and a GI50 (HOP-62 NSCLC) of 0.553 µM. The TGI (HOP-62 NSCLC) was > 100 µM, the GI50 (HOP-92 NSCLC) was 0.0806 µM and the TGI (HOP-92 NSCLC) was 78.7 µM. For the same compound, the GI50 (HS 578T breast) was 0.27 µM, the TGI (HS 578T breast) was > 100 µM and the GI50 (HT29 colon) was 0.0558 µM. The TGI (HT29 colon) was 0.393 µM, the GI50 (IGROV1 ovarian) was 0.707 µM and the TGI (IGROV1 ovarian) was > 100 µM. For the same compound, the GI50 (K-562 leukemia) was 0.0428 µM, the TGI (K-562 leukemia) was > 100 µM and the GI50 (KM12 colon) was 0.0549 µM. The TGI (KM12 colon) was > 100 µM, the GI50 (LOX IMVI melanoma) was 0.169 µM and the TGI (LOX IMVI melanoma) was > 100 µM. For the same compound, the GI50 (M14 melanoma) was 0.0769 µM, the TGI (M14 melanoma) was > 100 µM and the GI50 (MALME-3M melanoma) was 16.9 µM. The TGI (MALME-3M melanoma) was > 100 µM, the GI50 (MCF7 breast) was 0.0403 µM and the TGI (MCF7 breast) was > 100 µM. The GI50 (MDA-MB-231 breast) was 1.6 µM, the TGI (MDA-MB-231 breast) was > 100 µM and the GI50 (MDA-MB-435) was 0.0257 µM. The TGI (MDA-MB-435) was 0.0995 µM, the GI50 (MOLT-4 leukemia) was 0.333 µM and the TGI (MOLT-4 leukemia) was > 100 µM. For the same compound, the GI50 (NCI-H226 lung) was > 100 µM, the TGI (NCI-H226 lung) was > 100 µM and the GI50 (NCI-H23 lung) was 0.392 µM. For the same compound, the TGI (NCI-H23 lung) was > 100 µM, the GI50 (NCI-H460 lung) was 0.0699 µM and the TGI (NCI-H460 lung) was > 100 µM. It also gave a GI50 (NCI-H522 lung) of 0.0232 µM, a TGI (NCI-H522 lung) of 0.0787 µM and a GI50 (NCI/ADR-RES ovarian) of 0.103 µM. The TGI (NCI/ADR-RES ovarian) was > 100 µM, the GI50 (OVCAR-3 ovarian) was 0.0354 µM and the TGI (OVCAR-3 ovarian) was 0.77 µM. The GI50 (OVCAR-5 ovarian) was 2.39 µM, the TGI (OVCAR-5 ovarian) was > 100 µM and the GI50 (OVCAR-8 ovarian) was 0.352 µM. For the same compound, the TGI (OVCAR-8 ovarian) was > 100 µM, the GI50 (PC-3 prostate) was 0.0779 µM and the TGI (PC-3 prostate) was > 100 µM. The GI50 (RPMI-8226 leukemia) was 0.362 µM, the TGI (RPMI-8226 leukemia) was > 100 µM and the GI50 (RXF 393 renal) was 0.286 µM. For the same compound, the TGI (RXF 393 renal) was 46.9 µM, the GI50 (SF-268 CNS) was 0.638 µM and the TGI (SF-268 CNS) was > 100 µM. The GI50 (SF-295 CNS) was 0.036 µM, the TGI (SF-295 CNS) was 15.3 µM and the GI50 (SF-539 CNS) was 0.149 µM. It also gave a TGI (SF-539 CNS) of 0.903 µM, a GI50 (SK-MEL-2 melanoma) of 0.0597 µM and a TGI (SK-MEL-2 melanoma) of 21.2 µM. For the same compound, the GI50 (SK-MEL-28 melanoma) was 13 µM, the TGI (SK-MEL-28 melanoma) was > 100 µM and the GI50 (SK-MEL-5 melanoma) was 0.225 µM. For the same compound, the TGI (SK-MEL-5 melanoma) was > 100 µM, the GI50 (SK-OV-3 ovarian) was 0.311 µM and the TGI (SK-OV-3 ovarian) was > 100 µM. For the same compound, the GI50 (SNB-19 CNS) was 0.254 µM, the TGI (SNB-19 CNS) was > 100 µM and the GI50 (SW-620 colon) was 0.0633 µM. The TGI (SW-620 colon) was > 100 µM, the GI50 (T-47D breast) was > 100 µM and the TGI (T-47D breast) was > 100 µM. The GI50 (TK-10 renal) was 0.578 µM, the TGI (TK-10 renal) was > 100 µM and the GI50 (U251 CNS) was 0.0783 µM. The TGI (U251 CNS) was 30.5 µM, the GI50 (UACC-257 melanoma) was 51.5 µM and the TGI (UACC-257 melanoma) was > 100 µM. For the same compound, the GI50 (UACC-62 melanoma) was 0.0538 µM, the TGI (UACC-62 melanoma) was > 100 µM and the GI50 (UO-31 renal) was 0.744 µM. For the same compound, the TGI (UO-31 renal) was > 100 µM.
